The source of these data is paper PMC4022547 (Molecular Brain, 2014).

Assay [1] deals with hα6 + WT hβ2 + hβ3^V9’S nAChR (Homo sapiens, UniProt P17787+Q15825). The note with it: 100 μM nicotine; 3 days after cRNA injection. On the procedure: (§1) We planned to introduce identical amounts of cRNA, presumably producing equal amounts of each subunit protein, into oocytes largely due to lack of information about the levels of mRNA for each subunits that compose α6*-nAChRs in neurons or other cells. Concentrations of cRNAs for each nAChR α and β subunits (WT, mutant or variant) were adjusted to 500 ng μL^−1. We provisionally assumed that hα6 or its variants in association with hβ2 or hβ4 subunits would form complexes having 2:3 and/or 3:2 ratios of the indicated subunits and that oocytes also injected with WT or mutant form of β3 subunits (i.e., β3^V9’S) would express nAChR with 2:2:1 ratios of α:β:(β3 or β3^V9’S) subunits. For expression of binary nAChRs (i.e., two subunit containing nAChRs; α + β but not β3) cRNA mixtures were prepared by mixing 1 μL of cRNA for each subunit and an additional μL of RNAse free water (i.e., total volume 3 μL). Similarly for expression of ternary nAChRs [i.e., three subunit containing nAChRs; (α + β) + (β3 or β3^V9’S)] cRNA mixtures were prepared by mixing 1 μL of cRNA for each subunit. Several preparations of each mixture were prepared and stored at −80°C until further use. Injection of 138 nL of cRNA, out of 3 μL cRNA mixtures, into each oocyte would deliver ~23 ng of cRNA for each subunit whether binary or ternary nAChRs are expressed.
(§2) Two to 5 days after injection, oocytes were placed in a small-volume chamber and continuously perfused with OR2. The chamber was grounded through an agarose bridge. The oocytes were voltage-clamped at −70 mV (unless otherwise noted) to measure agonist or antagonist induced currents using Axoclamp 900A and pClamp 10.2 software (Molecular Devices, Sunnyvale, CA). The current signal was low-pass filtered at 10 Hz with the built-in low-pass Bessel filter in the Axoclamp 900A and digitized at 20 Hz with Axon Digidata1440A and pClamp10. […] Drugs (agonists and antagonists) were prepared daily in OR2. Drug was applied using a Valvelink 8.2 perfusion system (Automate scientific, Berkeley, CA). […] Then for the purpose of comparison electrophysiological recordings were performed in a given day in a given batch of oocytes following the same order of injections. […] All hβ4*-nAChR recordings were done in similar conditions to facilitate comparisons between hα6hβ4- and hα6hβ4hβ3-nAChRs. All electrophysiological measurements were conducted or checked in at least two batches of oocytes.
(§3) Raw data was collected and processed in part using pClamp 10.2 (Molecular Devices, Sunnyvale, CA), Origin 7.5 (OriginLab Corporation, Northampton, MA) and a spreadsheet (Excel; Microsoft, Bellevue, WA). Peak current amplitudes (Imax) are reported as mean ± SEM (for results from at least three oocytes, i.e., n = 3).

The next assay addresses hα6(A112V) + hβ4 nAChR (Homo sapiens, UniProt P30926+Q15825, A112V). The note with it: 100 μM nicotine; oocytes clamped at −70 mV. On the procedure: as §1, §2, §3
The target in assay [2] is hα6(A184D) + codon optimized hβ2 + hβ3^V9’S nAChR (Homo sapiens, UniProt P17787+Q15825, A184D). The note with it: 100 μM nicotine; oocytes clamped at −70 mV. On the procedure:
as §1, §2, §3

Assay [3] deals with hα6(D199Y) + codon optimized hβ2 + hβ3^V9’S nAChR (Homo sapiens, UniProt P17787+Q15825, D199Y). The note with it: 100 μM nicotine; oocytes clamped at −70 mV. As for the experimental part:
as §1, §2, §3

Assay [4] addresses hα6(D92E) + WT hβ2 + hβ3^V9’S nAChR (Homo sapiens, UniProt P17787+Q15825, D92E). The note with it: nicotine. On the procedure: as §1, §2, §3
Assay [5] has as its target hα6(E101K) + WT hβ2 + hβ3^V9’S nAChR (Homo sapiens, UniProt P17787+Q15825, E101K). The note with it: 100 μM nicotine; 3 days after cRNA injection. As for the experimental part:
as §1, §2, §3

For the next assay, the target named is hα6(E101K) + hβ4 nAChR (Homo sapiens, UniProt P30926+Q15825, E101K). The note with it: 100 μM nicotine; oocytes clamped at −70 mV. On the procedure:
as §1, §2, §3

In another assay the target is hα6(I226T) + hβ4 nAChR (Homo sapiens, UniProt P30926+Q15825, I226T). The note with it: 100 μM nicotine; oocytes clamped at −70 mV. As for the experimental part:
as §1, §2, §3

Assay [6] concerns the target hα6(N171K) + WT hβ2 + hβ3^V9’S nAChR (Homo sapiens, UniProt P17787+Q15825, N171K). The note with it: nicotine. As for the experimental part:
as §1, §2, §3

The target in assay [7] is hα6(N203T) + WT hβ2 + hβ3^V9’S nAChR (Homo sapiens, UniProt P17787+Q15825, N203T). The note with it: 100 μM nicotine. On the procedure: as §1, §2, §3
Assay [8] has as its target hα6(N203T) + codon optimized hβ2 + hβ3^V9’S nAChR (Homo sapiens, UniProt P17787+Q15825, N203T). The note with it: 100 μM nicotine; oocytes clamped at −70 mV. As for the experimental part:
as §1, §2, §3

Assay [9] deals with hα6(N203T) + hβ4 + hβ3 nAChR (Homo sapiens, UniProt P30926+Q15825, N203T). The note with it: 100 μM nicotine; oocytes clamped at −70 mV. As for the experimental part:
as §1, §2, §3

Assay [10] deals with hα6(N46K) + WT hβ2 + hβ3^V9’S nAChR (Homo sapiens, UniProt P17787+Q15825, N46K). The note with it: nicotine. As for the experimental part: as §1, §2, §3
Assay [11] deals with hα6(N46K) + hβ4 + hβ3 nAChR (Homo sapiens, UniProt P30926+Q15825, N46K). The note with it: 100 μM nicotine; oocytes clamped at −70 mV. On the procedure: as §1, §2, §3
Assay [12] deals with hα6(R96H) + WT hβ2 + hβ3^V9’S nAChR. The note with it: 100 μM nicotine; higher, p < 0.05. On the procedure:
as §1, §2, §3

Assay [13] concerns the target hα6(S156R) + WT hβ2 + hβ3^V9’S nAChR (Homo sapiens, UniProt P17787+Q15825, S156R). The note with it: nicotine. On the procedure: as §1, §2, §3
Assay [14] concerns the target hα6(S43P) + codon optimized hβ2 + hβ3^V9’S nAChR (Homo sapiens, UniProt P17787+Q15825, S43P). The note with it: 100 μM nicotine; oocytes clamped at −70 mV. On the procedure:
as §1, §2, §3

The target in another assay is hα6(S43P) + hβ4 nAChR (Homo sapiens, UniProt P30926+Q15825, S43P). The note with it: 100 μM nicotine; oocytes clamped at −70 mV. On the procedure:
as §1, §2, §3

Values joined by “and” are separate entries in the source; they are usually repeats but may differ in a detail not shown here. Equal values may be shown once.

Sequence of hα6(N203T) + WT hβ2 + hβ3^V9’S nAChR (Q15825 26-494 N203T): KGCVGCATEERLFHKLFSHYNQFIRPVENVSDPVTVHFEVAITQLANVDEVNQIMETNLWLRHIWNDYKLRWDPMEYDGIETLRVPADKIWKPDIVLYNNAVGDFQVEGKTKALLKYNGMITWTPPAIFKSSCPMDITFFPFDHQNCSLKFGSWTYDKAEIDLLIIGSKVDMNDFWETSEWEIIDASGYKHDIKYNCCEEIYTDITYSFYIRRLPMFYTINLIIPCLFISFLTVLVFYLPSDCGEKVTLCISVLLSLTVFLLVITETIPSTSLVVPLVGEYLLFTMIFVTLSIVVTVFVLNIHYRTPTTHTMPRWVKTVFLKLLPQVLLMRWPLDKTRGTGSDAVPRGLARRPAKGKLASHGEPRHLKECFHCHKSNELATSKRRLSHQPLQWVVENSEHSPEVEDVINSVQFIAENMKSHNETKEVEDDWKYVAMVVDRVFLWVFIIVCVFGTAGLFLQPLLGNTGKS
Sequence of hα6(N203T) + WT hβ2 + hβ3^V9’S nAChR (P17787 26-502): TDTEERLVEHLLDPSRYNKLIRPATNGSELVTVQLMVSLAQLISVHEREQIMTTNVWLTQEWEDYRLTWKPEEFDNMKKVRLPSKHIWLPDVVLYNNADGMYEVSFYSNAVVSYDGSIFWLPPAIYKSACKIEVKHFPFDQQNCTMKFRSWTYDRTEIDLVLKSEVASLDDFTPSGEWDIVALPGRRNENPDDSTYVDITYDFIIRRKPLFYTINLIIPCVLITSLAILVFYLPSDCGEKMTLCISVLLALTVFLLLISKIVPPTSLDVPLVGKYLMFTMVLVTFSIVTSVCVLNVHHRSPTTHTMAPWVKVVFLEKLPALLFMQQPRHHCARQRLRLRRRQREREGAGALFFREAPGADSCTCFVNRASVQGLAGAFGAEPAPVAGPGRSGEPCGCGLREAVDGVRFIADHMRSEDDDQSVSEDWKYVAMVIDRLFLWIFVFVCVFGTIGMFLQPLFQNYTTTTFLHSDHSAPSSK
Sequence of hα6(N203T) + WT hβ2 + hβ3^V9’S nAChR (Q05901 25-458 V273S partner limits assumed): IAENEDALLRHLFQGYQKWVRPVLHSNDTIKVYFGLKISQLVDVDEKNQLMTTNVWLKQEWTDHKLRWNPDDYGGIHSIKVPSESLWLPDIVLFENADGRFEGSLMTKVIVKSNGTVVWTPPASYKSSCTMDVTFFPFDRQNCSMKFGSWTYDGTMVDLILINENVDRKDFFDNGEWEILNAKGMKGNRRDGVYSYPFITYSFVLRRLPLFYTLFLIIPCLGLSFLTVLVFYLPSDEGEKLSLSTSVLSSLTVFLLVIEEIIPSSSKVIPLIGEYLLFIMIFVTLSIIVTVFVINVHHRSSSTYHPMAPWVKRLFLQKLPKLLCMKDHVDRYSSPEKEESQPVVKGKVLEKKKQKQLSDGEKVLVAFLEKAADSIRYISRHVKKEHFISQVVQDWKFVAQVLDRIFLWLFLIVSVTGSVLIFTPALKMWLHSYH
Sequence of hα6 + WT hβ2 + hβ3^V9’S nAChR (Q15825 26-494): as the sequence (Q15825 26-494 N203T) above, with T178N counted along it
Sequence of hα6 + WT hβ2 + hβ3^V9’S nAChR (P17787 26-502): as the sequence (P17787 26-502) above
Sequence of hα6 + WT hβ2 + hβ3^V9’S nAChR (Q05901 22-458 V273S partner): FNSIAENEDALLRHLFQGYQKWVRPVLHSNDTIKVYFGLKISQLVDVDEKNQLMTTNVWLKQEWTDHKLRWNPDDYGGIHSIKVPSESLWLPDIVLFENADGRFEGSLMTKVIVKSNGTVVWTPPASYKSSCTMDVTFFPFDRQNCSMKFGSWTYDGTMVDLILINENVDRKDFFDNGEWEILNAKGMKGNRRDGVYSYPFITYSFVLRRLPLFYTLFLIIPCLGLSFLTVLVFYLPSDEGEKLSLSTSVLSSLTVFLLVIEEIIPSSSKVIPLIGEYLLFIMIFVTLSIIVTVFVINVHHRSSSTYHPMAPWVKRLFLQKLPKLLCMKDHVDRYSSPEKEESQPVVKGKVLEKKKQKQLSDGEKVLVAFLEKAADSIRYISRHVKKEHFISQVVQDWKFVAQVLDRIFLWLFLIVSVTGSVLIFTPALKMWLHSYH
Sequence of hα6(A112V) + hβ4 nAChR (Q15825 26-494 A112V): as the sequence (Q15825 26-494 N203T) above, with A87V, T178N counted along it
Sequence of hα6(A112V) + hβ4 nAChR (P30926 22-498): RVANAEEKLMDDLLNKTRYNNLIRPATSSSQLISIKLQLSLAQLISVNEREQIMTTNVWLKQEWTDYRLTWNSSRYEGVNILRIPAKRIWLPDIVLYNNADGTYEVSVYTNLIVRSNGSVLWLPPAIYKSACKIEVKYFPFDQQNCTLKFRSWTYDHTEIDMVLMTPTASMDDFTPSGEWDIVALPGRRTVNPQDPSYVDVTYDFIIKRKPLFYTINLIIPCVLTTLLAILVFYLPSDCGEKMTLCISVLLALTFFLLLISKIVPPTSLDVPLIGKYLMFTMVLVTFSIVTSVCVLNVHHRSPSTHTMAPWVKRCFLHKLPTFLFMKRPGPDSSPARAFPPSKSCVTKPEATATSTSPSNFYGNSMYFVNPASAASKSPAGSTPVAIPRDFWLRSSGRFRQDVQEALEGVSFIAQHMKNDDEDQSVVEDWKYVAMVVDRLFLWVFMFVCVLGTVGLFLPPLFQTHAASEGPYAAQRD
Sequence of hα6(E101K) + hβ4 nAChR (Q15825 26-494 E101K): as the sequence (Q15825 26-494 N203T) above, with E76K, T178N counted along it
Sequence of hα6(E101K) + hβ4 nAChR (P30926 22-498): as the sequence (P30926 22-498) above

`CN1CCC[C@H]1c1cccnc1` [nicotine, L-nicotine]: the peak current response in assay [1] was 15 ± 2 nA and 15-30 nA; in assay [5], 15-30 nA; in [7] (3 days after cRNA injection), 15-30 nA. Further, the “peak current (Imax, mean ± SE)” value on hα6(A112V) + hβ4 nAChR is given as 110 ± 22 nA; in assay [2] it was 616 ± 95 nA; in assay [3], 2076 ± 68 nA; on hα6(E101K) + hβ4 nAChR, 73 ± 10 nA; at hα6(I226T) + hβ4 nAChR, 81 ± 10 nA; in assay [8] it was 762 ± 253 nA. Moreover, the “peak current (Imax, mean ± SE)” value in assay [14] is reported as 47 ± 9 nA; on hα6(S43P) + hβ4 nAChR, 39 ± 5 nA. In addition, the current response result in assay [4], in assay [6], in assay [10] and in [13] was “did not yield current responses” each time. In assay [7] (5 days after injection), the “Mean (±SEM) current response” value amounted to 53 ± 12 nA. Further, the “Mean (±SE) peak current response” value in assay [9] is given as 371 ± 68 nA; in assay [11] it was 307 ± 39 nA. Moreover, in assay [12], the “peak current response relative to hα6hβ2hβ3^V9’S-nAChRs” value is recorded as 2-5 fold.
